Tests used:
[1] = tested on: MM H929 cell lines and MM CD138+ primary cells; assay: mRNA expression of B cell and PC markers in MM cells, liquid or BM stroma co-culture (qRT-PCR); type: cell-based, human; details: 1 μM for 5 days; for expression of differentiation markers: liquid conditions (absence of stroma)
Method: (§1) 24-well plates were coated with 0.1% gelatin in PBS for 30 min at 37° C. The gelatin solution was removed, and the stromal cells were cultured overnight at a density of 5×10^4 cells/well to obtain a confluent monolayer. At that time, MM cell lines or primary MM cells (1×10^5 in 2 ml) were added to the stroma cultures. The stroma cocultures were incubated at 37° C. in RPMI containing 10% FCS, L-glutamine, and P/S, with or without AGN194310 (1 μM for 5 days), R115866 (1 μM for 5 days), IRX5183 (1 μM for 5 days), or BTZ (2.5 nM for 48 hr).
(§2) Total RNA was extracted using the RNeasy Mini Kit (QIAGEN) according to the manufacturer's instructions. cDNA was synthesized by reverse transcription using the iScript cDNA Synthesis Kit (Bio-Rad). qRT-PCR was performed with iTaq SYBR Green Supermix (Bio-Rad) using sequence specific primers. Gene expression was normalized to GAPDH, and relative quantification was calculated using ΔΔCt. All experiments were performed in duplicate and run on the Bio-Rad CFX96 machine.
The BM microenvironment (also called “niche”) limits PC differentiation by modulating retinoid signaling. A population of MM progenitors, phenotypically similar to B cells, is intrinsically resistant to BTZ and contributes to MRD and relapse. To investigate whether the BM niche plays a role in determining the phenotype of MM cells, the mRNA expression of B cell and PC markers in MM H929 cell lines (FIGS. 3A-D) and MM CD138+ primary cells (FIGS. 3E-H) was analyzed following co-culture with mouse BM stroma using human-specific primers. […] In contrast, co-culture of MM cells with BM stroma decreased the mRNA expression of B lymphocyte-induced maturation protein 1 (BLIMP1) and spliced X box-binding protein 1 (XBP1s) (FIG. 3B, C, F, G), which are critical mediators of PC differentiation.
The BM niche regulates hematopoietic stem cell (HSC) differentiation by expressing the retinoid-inactivating enzyme CYP26. CYP26 enzymes were highly expressed in BM mesenchymal cells, while their expression was barely detectable in MM cells. Since retinoid signaling promotes PC differentiation and potentiates Ig secretion, it was determined whether stromal CYP26 is responsible for inducing a B cell phenotype in MM cells. To this end, co-culture conditions were treated with the CYP26 inhibitor R115866 (R115) or the CYP26-resistant RA receptor α-selective (RARα-selective) retinoid IRX5183 (IRX).

MM cells = assay: surface CD138 expression of MM cells (flow cytometry); type: cell-based, human; details: 1 μM
Method: as §1
Following treatment, MM cells were collected, washed with PBS, and stained for 15 min at room temperature with phycoerythrin-conjugated (PE-conjugated) anti-CD138. Cells were washed to remove unbound antibody and evaluated in a FACSCalibur system (BD Biosciences). Stromal cells were identified by GFP expression, and viable cells were identified using 7-aminoactinomycin D (7-AAD). To calculate cell numbers, live GFP-cells were normalized to calibration beads.
Expression of CD138 is a hallmark of normal PC differentiation as well MM PCs.

[2] = tested on: MM cell lines and MM CD138+ primary cells; assay: BTZ sensitivity of MM cells, clonogenic or cellular recovery, liquid or BM stroma; type: cell-based, human; details: for BTZ resistance after separation from BM stroma: H929 cells, 5-day stroma co-culture, fresh media 0 to 48 hr; for sensitivity of MM cells to BTZ: BTZ 2.5 nM for 48 hr
Method: as §1
MM cells were separated from BM stromal cells by gently pipetting several times around the well. Detached cells were centrifuged, resuspended in fresh media, and incubated in a 24-well plate for 1 hr at 37° C. During this short incubation period, contaminating stromal cells attached to the well, while MM cells remained in suspension. MM cells were then recovered by gently pipetting. This protocol was used for qRT-PCR and CFU coculture experiments. The purity achieved using this protocol was confirmed by flow cytometry to be 98%-99% MM cells and less than 2% contaminating stroma.
After treatment, MM cells were collected, washed with PBS, and plated at a density of 5,000 cells/ml in 1 ml of 1.32% methylcellulose supplemented with 30% FBS, 10% BSA, L-glutamine, P/S, and 0.1 mM β-ME. Cells were plated in triplicate in 35-mm culture dishes, incubated at 37° C., and scored for the presence of colonies 14 days later.
To determine whether decreased retinoid signaling contributes to BTZ resistance within the BM niche, MM cell lines and MM CD138+ primary cells were incubated with BM stroma for 5 days, followed by BTZ treatment.
Strategies to overcome microenvironment-dependent chemoprotection have focused on mobilization of cancer cells from the BM niche into the peripheral circulation. It was analyzed whether the change in phenotype and subsequent BTZ resistance of MM cells were lost upon separation from the BM stroma, a process that mimics mobilization. To this end, H929 cells were separated from BM mesenchymal cells following a 5-day stroma co-culture, incubated in fresh media (RPMI with 10% FBS) for 0 to 48 hr, and then treated with BTZ. […] Thus, microenvironment-dependent BTZ resistance induced by the change in MM cell phenotype may not immediately be reversed by tumor mobilization.

[3] = tested on: Naive CD4+ CD25− FoxP3− cells; assay: Treg cell differentiation from naive T cells in vitro (FoxP3-GFP, flow cytometry); type: cell-based, mouse; details: in vitro assay; data not shown
Method: (§3) To determine whether a RARα agonist could affect T cell differentiation, T cells were incubated with a RARα agonist to determine its effect on Foxp3 expression. Naive CD4^+ CD25^− FoxP3^− cells were purified from a Foxp3-GFP mouse using flow cytometry by sorting and isolating based upon a GFP^− phenotype. These cells were activated polyclonally with αCD3 in vitro in the presence of IL-2 and TGF-β. These cells were then cultured in media with various concentrations of compound IRX5183 (a RARα agonist) and the expression of FoxP3-GFP was analyzed by flow cytometry. The RARα agonist compound IRX5183 enhanced differentiation of immunosuppressive Treg cells and inhibited differentiation of inflammatory TH17 cells from naïve T cells in vitro (Table 2).

[4] = tested on: Naive CD4+ CD25− FoxP3− cells; assay: Th17 cell differentiation from naive T cells in vitro; type: cell-based, mouse; details: in vitro assay; data not shown
Method: as §3

CD4+ T cells = assay: in vivo T cell differentiation in mice (FoxP3 expression in CD4+ T cells of blood and spleen); set-up: species or system mouse; details: in vivo assay; data not shown
Method: To expand on the finding above, the in vivo effects of a RARα agonist on T cell differentiation was evaluated in a mouse model. Mice were treated with 100 μg of compound IRX5183 or an equivalent volume of DMSO (vehicle control) every other day for 10 days. Lymphocytes from the blood and spleen were then isolated and FoxP3 expression in CD4^+ T cells was assessed.

B16F10 tumor cells = assay: survival of C57BL/6 mice engrafted with B16F10 tumor cells; type: in vivo; details: at 50 days; 10 nM RARγ agonist; vehicles only 0%
Method: The anti-tumor effects of anti-CTLA-4 antibody treatment combined with 10 nM RAR ? agonist (AGN204647 (IRX4647)) are examined in C57BL/6 mice engrafted with B16F10 tumor cells. […] The survival rate of the mice treated with anti-CTLA-4 antibody alone is 40% at 50 days while the mice treated with RAR ? agonist alone have a 30% survival in the same time.

NB4 cells = assay: CFU experiments off and on stroma, NB4 cells; type: cell-based; details: 10^−7 M ATRA, IRX5183, or 10^−8 M AM80
Description: (§4) Data across three independent experiments.

OCI-AML3 cells = assay: CFU experiments off and on stroma, OCI-AML3 cells; type: cell-based; details: 10^−6 M ATRA, IRX5183, or 10^−7 M AM80
Description: as §4

Kasumi-1 cells = assay: CFU experiments off and on stroma, Kasumi-1 cells; type: cell-based; details: 10^−6 M ATRA, IRX5183, or 10^−7 M AM80
Description: as §4

[5] = tested on: H929 luciferase+ (Luc+) cells; assay: systemic MM xenograft, bioluminescence; type: in vivo, NSG mice; details: monotherapy, 4 weeks; BTZ 0.5 mg/kg i.p. twice weekly, IRX 10 mg/kg once daily
Method: For the systemic MM model, 2×10^6 Luc+/GFP+ H929 cells were injected via the tail vein into 16-week-old male NSG mice. After engraftment, as determined by an exponential increase in bioluminescence, mice were treated with BTZ (0.5 mg/kg i.p.) twice weekly and with IRX (10 mg/kg) once daily. Tumor burden was assessed by bioluminescence, as above.
To test whether retinoids can enhance BTZ activity in MM, a systemic MM xenograft was developed by injecting 2×10^6 H929 luciferase+ (Luc+) cells via the tail vein of non-obese, diabetic, severe combined immunodeficiency IL-2 receptor γ-KO (NSG) mice. The animals were randomized to receive IRX, BTZ, or a combination of both, and disease burden was followed weekly by bioluminescence imaging (FIG. 6).

H929 Luc+ cells = assay: subcutaneous xenograft model of MM-niche interactions with WT or Smo-KO stroma, bioluminescence; type: in vivo, NSG mice; details: BTZ 0.5 mg/kg i.p. twice weekly
Method: 1×10^6 H929 Luc+ cells and 1×10^6 mouse BM stromal cells were resuspended in 100 μl […]®, diluted with RPMI (1:1), and injected subcutaneously into 16-week-old male NSG mice. After 4 days, treatment with BTZ (0.5 mg/kg i.p. twice weekly) and IRX (10 mg/kg i.p. daily) was initiated. Tumor burden was assessed by bioluminescence using the In Vivo Imaging System (PerkinElmer). For imaging, mice were exposed to 120 mg/kg D-luciferin via intraperitoneal injection […] before imaging and were anesthetized using isoflurane. Images were analyzed with Living Image Software, version 2.5 (PerkinElmer), and data were quantified as photons/second.
To study to what extent an RA-low environment created by the BM stroma and enhanced by MM cells via paracrine Hedgehog signaling contributes to BTZ resistance, a xenograft model of MM-niche interactions was developed. Each mouse carried 2 subcutaneous tumors consisting of H929 Luc+ cells and either WT (anterior tumors) or Smo-KO stroma (posterior tumors). Mice were treated with IRX (10 mg/kg i.p. daily), BTZ (0.5 mg/kg i.p. twice weekly), or a combination of both. The growth of tumors bearing WT or Smo-KO stroma was not different in untreated or IRX-treated groups (FIGS. 9 and 10). […] While some tumors in the treatment group receiving combined IRX and BTZ appeared to have regressed completely, even after anatomical study, this was not the case for all the mice in this group.

CYP26A1 = assay: stromal CYP26A1 expression in BM stromal cells (qRT-PCR); type: cell-based; details: for CYP26A1 expression on BM stromal cells: soluble factors tested
Method: as §2

In the case of CCc1ccc(C2=CC(C)(C)Sc3ccc(C#Cc4ccc(C(=O)O)cc4)cc32)cc1 [AGN194310], the “expression of differentiation markers” value [1] is reported as “mimicked the changes induced by BM stromal cells”, the “surface CD138 expression” value (MM cells; without stroma) is reported as “markedly decreased” and the “BTZ sensitivity of MM cells” value ([2]; liquid, 1 μM for 5 days, then BTZ) is reported as “decreasing BTZ sensitivity”.
CCOc1c(Br)cc(C(=O)Nc2ccc(C(=O)O)cc2)cc1C(=O)c1ccc(C)cc1 [AGN196996] was tested, and the Treg cell numbers [3] was “decreases Treg cell numbers”, the Th17 cell numbers [4] was “increases Th17 cell numbers” and the Th17 cell numbers (CD4+ T cells) was “increases Th17 cell numbers”. For the same compound, the Treg cell numbers (CD4+ T cells) was “decreases Treg cell numbers”.
CC1(C)CCC(C)(C)c2cc(C(/C=C/c3cccc(C(=O)O)c3)=N/O)ccc21 [AGN204647] gave a survival rate (B16F10 tumor cells) of 30%.
For CC1(C)CCC(C)(C)c2cc(NC(=O)c3ccc(C(=O)O)cc3)ccc21 [AM80, 4-[(5,6,7,8-tetrahydro-5,5,8,8-tetramethyl-2-naphthalenyl)carbamoyl]benzoic acid], the “clonogenic growth (CFU)” value (NB4 cells) was “decrease in clonogenic growth compared to control”, the “clonogenic growth (CFU)” value (OCI-AML3 cells) was “decrease in clonogenic growth compared to control” and the “clonogenic growth (CFU)” value (Kasumi-1 cells) was “decrease in clonogenic growth compared to control”.
In the case of CC1=C(/C=C/C(C)=C/C=C/C(C)=C/C(=O)O)C(C)(C)CCC1 [ATRA, all-trans retinoic acid], the “clonogenic growth (CFU)” value (NB4 cells) is reported as “stroma blockage”, the “clonogenic growth (CFU)” value (OCI-AML3 cells) is reported as “stroma blockage” and the “clonogenic growth (CFU)” value (Kasumi-1 cells) is reported as “stroma blockage”.
With CC(C)C[C@H](NC(=O)[C@H](Cc1ccccc1)NC(=O)c1cnccn1)B(O)O [BTZ, bortezomib] the “BTZ resistance after separation from BM stroma” value ([2]; then BTZ) was “remained partially resistant to BTZ for up to 48 hr”, the “sensitivity of MM cells to BTZ” value ([2]; absence of BM stroma (liquid)) was “highly sensitive” and the “sensitivity of MM cells to BTZ” value ([2]; after 5 days incubation with BM stroma) was “induced BTZ resistance”. The “tumor burden (bioluminescence)” value [5] was “decreased tumor growth compared with untreated controls”, the “response of tumors carrying Smo-KO stroma (bioluminescence)” value (H929 Luc+ cells) was “significant response” and the “response of tumors with WT stroma (bioluminescence)” value (H929 Luc+ cells) was “refractory to BTZ treatment”.
CCC(CC)C(c1ccc(Nc2nc3ccccc3s2)cc1)n1cncn1 (stereo not shown) [Compound R115866] was tested, and the “mRNA expression of BCL6, BLIMP1, XBP1s, CHOP markers” value ([1]; BM stroma co-cultures) was “restored all markers to levels comparable to those of liquid control conditions”, the “expression of differentiation markers” value [1] was “did not significantly affect” and the “surface CD138 expression” value (MM cells; BM stromal cell co-cultures) was “restored CD138 expression”. The “stroma-induced BTZ resistance” value ([2]; BM stroma with 1 μM test agent for 5 days, then BTZ 2.5 nM for 48 hr) was “overcome” and the “BTZ resistance after separation from BM stroma” value ([2]; then BTZ) was “prevented the development of a BTZ-resistant phenotype”.
With CC1=C2C[C@H]3[C@@H](CC=C4C[C@@H](O)CC[C@@]43C)[C@@H]2CC[C@]12O[C@@H]1C[C@H](C)CN[C@H]1[C@H]2C [cyclopamine] the “stromal Cyp26a1 upregulation by MM cells” value (CYP26A1; co-culture with MM cells) was “partially overcame”.
With IL-6: cytokine, soluble factor tested the “CYP26A1 expression on BM stromal cells” value (CYP26A1) was “no significant effects”.
TNF-α was tested, and the “CYP26A1 expression on BM stromal cells” value (CYP26A1) was “no significant effects”.

Reference: patent publication US10471030B2, “Immunomodulatory and differentiating function selective retinoid and rexinoid compounds in combination with immune modulators for cancer immunotherapy” (Io Therapeutics, Inc., priority 2017, dated 2019)
